# From ChEMBL document CHEMBL1201862, “PubChem BioAssay data set” (2004)
# Activity calls are given as the source filed them.
# Assays:
# [1] = target: Serine/threonine-protein kinase pim-1 (Homo sapiens, UniProt P11309); type: functional
# [2] = target: Casein kinase II subunit alpha (Homo sapiens, UniProt P68400); type: functional
# Aurora kinase B = Aurora kinase B (Homo sapiens, UniProt Q96GD4); type: functional
# [3] = target: Mitogen-activated protein kinase kinase kinase kinase 5 (Homo sapiens, UniProt Q9Y4K4); type: functional;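 note: measured as one member of a kinome-spanning kinase panel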
# LIM domain kinase 1 = LIM domain kinase 1 (Homo sapiens, UniProt P53667); assay: Navigating the Kinome. Panel member name: LIMK1; type: functional
# [4] = target: Serine/threonine-protein kinase Chk1 (Homo sapiens, UniProt O14757); type: functional;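 note: measured as one member of a kinome-wide kinase profiling panel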
# [5] = target: Macrophage colony-stimulating factor 1 receptor (Homo sapiens, UniProt P07333); type: functional;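 note: value comes from the Navigating the Kinome screening panel, CSF1R member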
# [6] = target: MAP kinase-activated protein kinase 3 (Homo sapiens, UniProt Q16644); type: functional;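 note: value comes from a kinome-wide profiling panel in which MAPKAPK3 is one of the panel members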
# [7] = target: Lymphokine-activated killer T-cell-originated protein kinase (Homo sapiens, UniProt Q96KB5); type: functional;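 note: value comes from a kinase panel screen in which TOPK was one of the panel members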
# [8] = target: High affinity nerve growth factor receptor (Homo sapiens, UniProt P04629); type: functional;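 note: NTRK1 tested as one member of a kinome-wide profiling panel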
# [9] = target: Hepatocyte growth factor receptor (Homo sapiens, UniProt P08581); type: functional;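 note: kinase panel profiling across the kinome, with MET as the panel member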
# [10] = target: Cyclin-dependent kinase 19 (Homo sapiens, UniProt Q9BWU1); assay: Navigating the Kinome. Panel member name: CDC2L6; type: functional
# [11] = target: Leukocyte tyrosine kinase receptor (Homo sapiens, UniProt P29376); assay: Navigating the Kinome. Panel member name: LTK; type: functional
# [12] = target: FAD-linked sulfhydryl oxidase ALR (Homo sapiens, UniProt P55789); assay: ALR-catalysed DTT oxidation blockers – biochemical, H2O2 detection, luminescence, cherry-pick, dose response (AID 493248)
# [13] = target: T1, High affinity choline transporter 1 (Homo sapiens, UniProt Q9GZV3); assay: human choline transporter blockers, potency – cell-based, 5-point CRC, membrane potential dye, dose response (AID 504840); type: functional
# T1 sequence (Q9GZV3 whole entry): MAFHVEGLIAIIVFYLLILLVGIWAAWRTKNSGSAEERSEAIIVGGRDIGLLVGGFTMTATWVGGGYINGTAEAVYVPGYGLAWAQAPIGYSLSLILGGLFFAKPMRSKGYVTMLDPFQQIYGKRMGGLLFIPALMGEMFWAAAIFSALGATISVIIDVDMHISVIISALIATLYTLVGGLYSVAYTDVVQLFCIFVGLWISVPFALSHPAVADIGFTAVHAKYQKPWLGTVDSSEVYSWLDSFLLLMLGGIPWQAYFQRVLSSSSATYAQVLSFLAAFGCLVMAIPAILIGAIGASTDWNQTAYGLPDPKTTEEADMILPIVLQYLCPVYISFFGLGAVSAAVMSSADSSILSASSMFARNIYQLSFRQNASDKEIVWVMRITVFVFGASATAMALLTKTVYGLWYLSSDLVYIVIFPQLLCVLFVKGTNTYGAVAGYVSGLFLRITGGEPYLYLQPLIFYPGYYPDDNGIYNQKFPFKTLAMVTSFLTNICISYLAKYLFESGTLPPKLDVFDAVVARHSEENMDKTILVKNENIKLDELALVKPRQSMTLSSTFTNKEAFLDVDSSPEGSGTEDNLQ
# [14] = target: T1, High affinity choline transporter 1; assay: human choline transporter blockers, potency – cell-based, 10-point CRC, membrane potential dye, dose response (AID 588401); type: functional;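 note: membrane potential dye fluorescence of choline-evoked depolarization via CHT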
# [15] = target: Neuropeptides B/W receptor type 1 (Homo sapiens, UniProt P48145); assay: human NPBW1 receptor blockade, IC50 – cell-based, fluorescence, dose response, set 5, late-stage follow-up (AID 588566); type: functional
# [16] = target: Melanin-concentrating hormone receptor 1 (Homo sapiens, UniProt Q99705); assay: Late-stage fluorescence-based counterscreen for antagonists of the G-protein coupled receptor 7 (GPR7): cell-based dose response assay to identify antagonists of the melanin-concentrating hormone receptor 1 (MCHR1) Set 5.; type: functional
# [17] = target: ALK tyrosine kinase receptor (Homo sapiens, UniProt Q9UM73); type: functional;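 note: ALK tested as one member of a kinase panel screen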
# Wee1-like protein kinase = Wee1-like protein kinase (Homo sapiens, UniProt P30291); assay: Navigating the Kinome. Panel member name: WEE1; type: functional
# Sequence of Serine/threonine-protein kinase pim-1 (P11309 whole entry): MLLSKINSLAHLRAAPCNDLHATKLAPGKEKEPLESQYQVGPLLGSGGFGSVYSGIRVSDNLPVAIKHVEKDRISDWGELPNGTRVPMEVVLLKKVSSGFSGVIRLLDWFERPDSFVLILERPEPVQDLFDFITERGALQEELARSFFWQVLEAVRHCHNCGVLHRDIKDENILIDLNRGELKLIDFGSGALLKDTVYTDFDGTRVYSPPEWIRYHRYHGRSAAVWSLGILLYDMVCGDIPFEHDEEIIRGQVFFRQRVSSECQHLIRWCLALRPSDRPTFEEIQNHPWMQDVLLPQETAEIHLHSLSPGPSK
# Sequence of Leukocyte tyrosine kinase receptor (P29376 whole entry): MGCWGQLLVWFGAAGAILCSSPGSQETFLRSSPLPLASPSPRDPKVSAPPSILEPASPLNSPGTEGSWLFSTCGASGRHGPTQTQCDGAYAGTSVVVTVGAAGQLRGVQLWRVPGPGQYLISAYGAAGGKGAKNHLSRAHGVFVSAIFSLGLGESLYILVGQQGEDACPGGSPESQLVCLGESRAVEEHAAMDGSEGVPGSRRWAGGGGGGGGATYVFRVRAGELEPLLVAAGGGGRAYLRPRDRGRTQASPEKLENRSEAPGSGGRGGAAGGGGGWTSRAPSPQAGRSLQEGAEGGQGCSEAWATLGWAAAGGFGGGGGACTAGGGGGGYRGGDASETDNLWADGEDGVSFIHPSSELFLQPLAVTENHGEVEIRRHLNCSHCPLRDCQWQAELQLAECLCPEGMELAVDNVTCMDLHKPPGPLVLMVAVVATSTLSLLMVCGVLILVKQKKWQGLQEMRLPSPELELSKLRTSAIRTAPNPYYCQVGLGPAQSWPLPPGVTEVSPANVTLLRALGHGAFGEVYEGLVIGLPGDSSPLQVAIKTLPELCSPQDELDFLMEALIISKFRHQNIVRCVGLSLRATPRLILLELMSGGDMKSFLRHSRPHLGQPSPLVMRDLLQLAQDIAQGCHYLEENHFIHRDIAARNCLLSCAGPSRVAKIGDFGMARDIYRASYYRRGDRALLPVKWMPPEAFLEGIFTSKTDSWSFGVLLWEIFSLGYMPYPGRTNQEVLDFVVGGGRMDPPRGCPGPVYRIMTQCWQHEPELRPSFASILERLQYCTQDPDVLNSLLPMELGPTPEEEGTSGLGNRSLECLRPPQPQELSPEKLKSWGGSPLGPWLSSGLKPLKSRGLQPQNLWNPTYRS
# Sequence of MAP kinase-activated protein kinase 3 (Q16644 whole entry): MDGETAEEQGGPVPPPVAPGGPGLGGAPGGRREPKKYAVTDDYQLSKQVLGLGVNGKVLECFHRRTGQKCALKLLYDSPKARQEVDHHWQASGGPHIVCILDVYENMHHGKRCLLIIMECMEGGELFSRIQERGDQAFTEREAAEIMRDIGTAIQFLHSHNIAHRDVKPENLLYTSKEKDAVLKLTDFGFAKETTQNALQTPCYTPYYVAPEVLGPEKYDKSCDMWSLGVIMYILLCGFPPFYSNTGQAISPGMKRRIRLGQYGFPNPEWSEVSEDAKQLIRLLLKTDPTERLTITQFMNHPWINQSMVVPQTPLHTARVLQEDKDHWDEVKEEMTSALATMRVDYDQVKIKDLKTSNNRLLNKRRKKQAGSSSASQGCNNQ
# Sequence of Macrophage colony-stimulating factor 1 receptor (P07333 whole entry): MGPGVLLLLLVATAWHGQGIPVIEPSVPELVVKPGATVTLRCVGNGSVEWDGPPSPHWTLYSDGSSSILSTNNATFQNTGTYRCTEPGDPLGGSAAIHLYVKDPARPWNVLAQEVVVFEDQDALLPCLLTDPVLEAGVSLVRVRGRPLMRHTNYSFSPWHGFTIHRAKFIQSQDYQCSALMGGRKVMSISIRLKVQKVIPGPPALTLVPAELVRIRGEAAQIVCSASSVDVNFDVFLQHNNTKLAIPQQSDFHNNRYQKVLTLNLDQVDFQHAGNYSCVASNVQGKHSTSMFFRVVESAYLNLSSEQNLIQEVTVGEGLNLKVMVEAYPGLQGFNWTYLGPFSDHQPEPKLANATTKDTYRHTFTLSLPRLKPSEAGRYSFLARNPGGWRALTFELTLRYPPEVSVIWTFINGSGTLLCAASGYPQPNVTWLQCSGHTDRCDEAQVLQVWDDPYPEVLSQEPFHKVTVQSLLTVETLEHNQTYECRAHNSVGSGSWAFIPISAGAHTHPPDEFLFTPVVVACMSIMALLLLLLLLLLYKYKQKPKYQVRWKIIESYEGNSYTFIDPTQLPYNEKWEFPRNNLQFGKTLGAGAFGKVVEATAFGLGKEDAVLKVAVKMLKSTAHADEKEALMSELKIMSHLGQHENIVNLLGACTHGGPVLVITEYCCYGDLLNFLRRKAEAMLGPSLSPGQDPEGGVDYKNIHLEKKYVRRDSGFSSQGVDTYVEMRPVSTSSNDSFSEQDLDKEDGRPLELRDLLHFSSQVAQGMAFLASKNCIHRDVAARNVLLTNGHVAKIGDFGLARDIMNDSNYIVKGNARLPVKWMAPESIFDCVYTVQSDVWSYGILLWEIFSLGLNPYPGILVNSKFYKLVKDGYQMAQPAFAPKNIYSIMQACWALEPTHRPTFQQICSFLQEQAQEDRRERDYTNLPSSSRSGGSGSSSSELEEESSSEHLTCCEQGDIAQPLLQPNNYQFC
# Sequence of Cyclin-dependent kinase 19 (Q9BWU1 whole entry): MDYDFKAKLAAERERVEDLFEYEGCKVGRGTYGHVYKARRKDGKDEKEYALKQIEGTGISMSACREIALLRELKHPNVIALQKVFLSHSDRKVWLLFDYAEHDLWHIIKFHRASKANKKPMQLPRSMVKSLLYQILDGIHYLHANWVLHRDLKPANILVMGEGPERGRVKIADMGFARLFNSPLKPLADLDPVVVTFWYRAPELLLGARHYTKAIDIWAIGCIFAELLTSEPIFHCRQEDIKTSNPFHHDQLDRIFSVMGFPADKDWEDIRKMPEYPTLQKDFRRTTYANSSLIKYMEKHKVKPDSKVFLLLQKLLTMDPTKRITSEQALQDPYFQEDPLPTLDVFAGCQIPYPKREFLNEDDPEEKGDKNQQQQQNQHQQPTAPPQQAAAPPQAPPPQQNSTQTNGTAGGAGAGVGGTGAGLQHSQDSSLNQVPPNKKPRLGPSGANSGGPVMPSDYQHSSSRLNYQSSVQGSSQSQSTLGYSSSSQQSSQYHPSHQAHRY
# Sequence of Hepatocyte growth factor receptor (P08581 whole entry): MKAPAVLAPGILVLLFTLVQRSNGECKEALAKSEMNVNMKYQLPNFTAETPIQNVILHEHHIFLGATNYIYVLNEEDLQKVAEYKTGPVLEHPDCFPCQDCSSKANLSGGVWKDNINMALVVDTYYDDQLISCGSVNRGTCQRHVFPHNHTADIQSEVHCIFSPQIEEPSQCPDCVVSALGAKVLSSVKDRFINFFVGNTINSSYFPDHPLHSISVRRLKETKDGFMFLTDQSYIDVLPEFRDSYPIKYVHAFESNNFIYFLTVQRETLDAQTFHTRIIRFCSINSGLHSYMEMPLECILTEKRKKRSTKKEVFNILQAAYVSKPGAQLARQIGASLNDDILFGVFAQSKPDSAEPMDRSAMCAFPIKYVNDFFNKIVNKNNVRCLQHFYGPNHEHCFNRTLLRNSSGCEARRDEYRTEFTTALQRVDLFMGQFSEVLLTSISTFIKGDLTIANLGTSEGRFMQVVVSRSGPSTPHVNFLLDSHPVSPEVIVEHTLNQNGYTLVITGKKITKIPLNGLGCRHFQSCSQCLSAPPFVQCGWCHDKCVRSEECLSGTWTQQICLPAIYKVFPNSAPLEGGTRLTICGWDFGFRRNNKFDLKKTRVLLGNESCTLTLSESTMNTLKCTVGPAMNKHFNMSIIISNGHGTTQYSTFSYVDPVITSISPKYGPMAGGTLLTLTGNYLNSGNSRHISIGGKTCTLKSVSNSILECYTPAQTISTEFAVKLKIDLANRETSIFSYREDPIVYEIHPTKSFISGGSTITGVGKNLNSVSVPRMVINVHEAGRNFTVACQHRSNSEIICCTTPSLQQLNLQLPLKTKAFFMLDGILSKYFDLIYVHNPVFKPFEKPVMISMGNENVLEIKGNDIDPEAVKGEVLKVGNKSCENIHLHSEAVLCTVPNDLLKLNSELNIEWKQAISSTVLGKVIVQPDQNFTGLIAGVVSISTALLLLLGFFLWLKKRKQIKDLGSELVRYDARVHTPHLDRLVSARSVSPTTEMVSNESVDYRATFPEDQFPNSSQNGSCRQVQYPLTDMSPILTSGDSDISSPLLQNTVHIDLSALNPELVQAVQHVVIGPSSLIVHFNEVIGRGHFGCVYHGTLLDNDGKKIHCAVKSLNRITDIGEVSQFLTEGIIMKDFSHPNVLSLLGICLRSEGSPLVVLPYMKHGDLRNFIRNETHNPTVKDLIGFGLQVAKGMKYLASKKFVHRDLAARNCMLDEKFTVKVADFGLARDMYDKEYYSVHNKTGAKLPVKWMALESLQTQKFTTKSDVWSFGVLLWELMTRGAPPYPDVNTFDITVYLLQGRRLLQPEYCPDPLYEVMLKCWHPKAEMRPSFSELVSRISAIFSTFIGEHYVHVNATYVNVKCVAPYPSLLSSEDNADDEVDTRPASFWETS
# Sequence of FAD-linked sulfhydryl oxidase ALR (P55789 whole entry): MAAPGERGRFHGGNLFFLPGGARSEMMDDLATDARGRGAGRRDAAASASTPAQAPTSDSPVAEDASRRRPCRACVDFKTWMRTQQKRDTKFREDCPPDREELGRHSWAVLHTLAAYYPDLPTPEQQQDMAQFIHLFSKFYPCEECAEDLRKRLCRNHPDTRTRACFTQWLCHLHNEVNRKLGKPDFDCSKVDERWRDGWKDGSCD
# Sequence of Lymphokine-activated killer T-cell-originated protein kinase (Q96KB5 whole entry): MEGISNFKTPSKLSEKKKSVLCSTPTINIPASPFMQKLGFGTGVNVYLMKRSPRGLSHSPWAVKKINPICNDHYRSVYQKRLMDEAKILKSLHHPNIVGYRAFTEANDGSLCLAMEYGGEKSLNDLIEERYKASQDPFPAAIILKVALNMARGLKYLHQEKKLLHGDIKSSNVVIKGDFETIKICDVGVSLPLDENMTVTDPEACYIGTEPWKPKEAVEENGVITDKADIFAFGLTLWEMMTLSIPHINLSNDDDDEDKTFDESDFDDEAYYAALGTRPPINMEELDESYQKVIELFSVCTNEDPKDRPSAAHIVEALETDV
compound,measurement,setting,value
COc1ccc(C=C2C(=O)ON=C2c2ccc(Br)cc2)cc1,Ki,[1],1.58 µM (active)
same,Ki,[2],3.98 µM (active)
same,Ki,Aurora kinase B,1.58 µM (active)
same,Ki,[3],2 µM (active)
c1ccc(-c2ncc3ccccn23)cc1,Ki,LIM domain kinase 1,10 µM (active)
same,Ki,[4],25.1 µM (active)
same,Ki,[5],> 100 µM (inactive)
COc1cc2ncnc(Nc3ccc(F)c(Cl)c3)c2cc1OCCCN1CCOCC1 [GEFITINIB],Ki,[6],> 10 µM (inactive)
same,Ki,[7],> 10 µM (inactive)
CCc1cc(-c2n[nH]c(C)c2-c2ccc3c(c2)OCCO3)c(O)cc1O,Ki,[1],1.58 µM (active)
same,Ki,[8],> 15.8 µM (inactive)
same,Ki,[9],2.51 µM (active)
same,Ki,[10],> 100 µM (inactive)
same,Ki,[11],2.51 µM (active)
Oc1ccc(CC2CC3CCN2CC3)cc1O (stereo unspecified),AC50,[12],3.81 µM (active)
same,IC50,[13],1.08 µM (active)
same,IC50,[14],1.15 µM (active)
CCOc1ccc(Sc2c(Cl)cnn(Cc3cccc4ccccc34)c2=O)cc1,IC50,[15],887 nM (active)
same,IC50,[16],> 20 µM (inactive)
CNc1nc(C)c(-c2ccnc(Nc3ccc(N4CCN(C(C)=O)CC4)cc3)n2)s1,Ki,[17],2.51 µM (active)
same,Ki,Wee1-like protein kinase,200 nM (active)
